Earlier results in US8357388B2, “Drug depot implant designs and methods of implantation” (Warsaw Orthopedic, Inc., priority 2006, dated 2013).

System: PGE2 production
Settings: in cell culture

## COc1ccc2cc(CC(=O)O)ccc2c1 [6-methoxy-2-napthylacetic acid]
  PGE2 production and local inflammation: suppress PGE2 production and local inflammation
